Data taken from publication PMC11988800, “A Comprehensive In Vitro and In Silico Approach for Targeting 4-Hydroxyphenyl Pyruvate Dioxygenase: Towards New Therapeutics for Alkaptonuria” (International Journal of Molecular Sciences, 2025).
Where two headings read alike, the source gives them in different places.

Legend:
human 4-HPPD [1] = target: T1, human 4-HPPD (Homo sapiens, UniProt P32754); assay: Inhibition assay (IC50/IC90): ochronotic pigment formation in recombinant E. coli expressing human 4-HPPD
Protocol: To do so, an inhibition assay was set up to test the compounds at different concentrations. The bacterial suspension was incubated in a medium containing 1 mM IPTG, 75 µM Tyr, and the tested inhibitor, monitoring the formation of the ochronotic pigment at 405 nm after 24 h.
The pre-inoculum was prepared in LB medium (Lysogeny Broth) supplemented with glucose (1% final concentration) and kanamycin sulfate (50 µg/mL final concentration). […] The pre-inoculum was incubated overnight at 37 °C under agitation. After measuring the OD600 of the pre-inoculum using LB medium as a blank, it was diluted to a final optical density of 0.1 in LB medium supplemented with kanamycin (LBK). The cell culture was shaken at 37 °C, and the OD600 was measured every 45 min until reaching the mid-log phase (0.6–0.8). Protein expression was then induced by adding isopropyl-β-D-thiogalactopyranoside (IPTG) [26, 27, 28].
Briefly, serial dilutions of the inhibitors were prepared in 96-deep well standard plates, starting from a stock solution of 10^−2 M, and then 600 µL of bacterial suspension (see Section 4.1.1) supplemented with 1 mM IPTG and 75 µg/mL Tyr were added into each well.
In parallel, the control tests were set up as follows: • - Blank: culture medium without cell suspension. • - Negative control: cell suspension without IPTG and Tyr. • - Not-Inhibited control: cell suspension supplemented with 1 mM IPTG and 75 µg/mL Tyr.
The plate was incubated on a microplate shaker at 800 rpm for 24 h.
The plates were centrifuged at 3200× g for 10 min at 4 °C. Subsequently, 150 μL of supernatant (pigmented medium) was transferred to a 96-well standard plate, and the absorbance was measured at 405 nm using a multimode plate reader (EnVision 2105, PerkinElmer Inc., Waltham, MA, USA). GraphPad Prism 8 was used to perform a nonlinear regression analysis (Log[Inhibitor] vs. response—Variable slope (four parameters)) and to obtain the inhibition curve of the compounds.

human 4-HPPD [2] = target: T1, human 4-HPPD; assay: Residence time evaluation by optimized jump dilution method in recombinant E. coli expressing human 4-HPPD
Protocol: (§1) 4-HPPD was initially incubated with each compound at saturating concentrations, and the exhaust medium (containing the inhibitor) was removed and replaced with fresh medium without the inhibitor, while the precursor (tyrosine) was added to the substrate. Enzyme activity was monitored by measuring the formation of ochronotic pigment consequent to the formation of HGA. Each inhibitor was analyzed in duplicate, and the analyses were repeated at least three times. In each experiment, control tests were set up as follows: a blank (control without induction), a control without inhibition, and a control with inhibition.
(§2) An optimized version of the jump dilution method was employed to evaluate the residence time of the novel candidate 4-HPPD inhibitors. […] This approach allowed precise tracking of reaction kinetics with high temporal resolution. After determining the IC50 and IC90 values for each tested compound, the enzyme was incubated with the inhibitors at concentrations corresponding to IC90. The exhaust medium containing the inhibitor was subsequently replaced with a fresh and inhibitor-free medium supplemented with tyrosine, the substrate precursor. The recovery of enzymatic activity was monitored over time using spectrophotometric analysis. This analytical approach provided precise measurements of the residence time for each inhibitor.
(§3) Each test was performed in duplicate, and the experiments were replicated at least three times. The tubes were half-capped and stirred at room temperature overnight.
(§4) The tubes were centrifuged at 2500× g for 10 min at 20 °C. The supernatant (exhaust medium) was discarded, while the pellet was resuspended in 7 mL of fresh LBK medium.
(§5) The tubes were incubated at 37 °C with stirring after taking the first sample (T0). Then, every 45 min for a period of 8 h, 220 μL were taken from each tube and placed in an Eppendorf tube, which was centrifuged at 13,000× g for 5 min at 4 °C. Subsequently, 200 μL of supernatant (pigmented medium) from each Eppendorf tube was transferred to a 96-well standard plate, and the absorbance at 405 nm was measured using a multimode plate reader (EnVision 2105, PerkinElmer Inc., Waltham, MA, USA).
(§6) Linear regression analysis was performed to calculate the slope values for each of the two curves corresponding to vs and v0 . These two parameters were then substituted into the equation below and reported for the nonlinear regression analysis of the data related to the tested compounds: Y=vsX+v0−vs /K (1−e^−KX) • Y: Absorbance value (HGA accumulation); • X: time (min); • vs : steady-state velocity; • v0: initial velocity; • K: koff .

human 4-HPPD [3] = target: T1, human 4-HPPD
Protocol: as §1, §2, §3, §4, §5, §6

T1 sequence (P32754 whole entry): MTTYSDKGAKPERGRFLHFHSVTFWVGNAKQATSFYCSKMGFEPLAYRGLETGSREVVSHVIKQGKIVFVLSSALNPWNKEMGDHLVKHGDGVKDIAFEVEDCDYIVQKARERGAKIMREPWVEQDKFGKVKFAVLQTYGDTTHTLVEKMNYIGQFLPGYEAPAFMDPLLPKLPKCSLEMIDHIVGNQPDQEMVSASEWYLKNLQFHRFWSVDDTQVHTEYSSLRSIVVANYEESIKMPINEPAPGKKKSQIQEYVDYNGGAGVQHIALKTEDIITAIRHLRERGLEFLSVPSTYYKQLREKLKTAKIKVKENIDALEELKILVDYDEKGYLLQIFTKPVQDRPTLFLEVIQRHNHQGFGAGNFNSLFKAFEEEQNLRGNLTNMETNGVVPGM

| SMILES | IC90 (human 4-HPPD [1]) | koff (human 4-HPPD [2]) | residence time (human 4-HPPD [2]) | residence time (τ) (human 4-HPPD [2]; derived from koff) | half-life (t 1/2) (human 4-HPPD [3]) | residence time (τ) (human 4-HPPD [2]) |
| --- | --- | --- | --- | --- | --- | --- |
| CS(=O)(=O)c1ccc(C(=O)C2C(=O)CCCC2=O)c([N+](=O)[O-])c1 [c1, mesotrione] | 2000 nM | 6.67e-05 s⁻¹ | 228 ± 27.6 min | higher residence time value than NTBC | – | – |
| CS(=O)(=O)c1ccc(C(=O)C2C(=O)CCCC2=O)c(Cl)c1COCC(F)(F)F [c2, tembotrione] | 500 nM | 0.000183 s⁻¹ | 94 ± 23.5 min | – | 1.0852 ± 0.27142 h | – |
| CS(=O)(=O)c1ccc(C(=O)C2C(=O)CCCC2=O)c(Cl)c1 [c3, Sulcotrione] | 200 nM | 0.000167 s⁻¹ | 120 ± 57.6 min | – | 1.3911 ± 0.66537 h | higher residence time value than NTBC |
| CC1(C)CC(=O)C(C(=O)c2ccc([N+](=O)[O-])cc2Cl)C(=O)C1 [c4, 5,5-dimethylcyclohexane-2-(2-chloro-4-nitrobenzoyl)-1,3-dione] | – | – | – | – | 1.4964 ± 0.23042 h | – |
| CC1(C)CC(=O)C(C(=O)c2ccc(C(F)(F)F)cc2[N+](=O)[O-])C(=O)C1 [c5, 5,5-dimethyl-2-(2-nitro-4-(trifluoromethyl)benzoyl)cyclohexane-1,3-dione] | 8000 nM | 5e-05 s⁻¹ | 352 ± 53.1 min | higher residence time value than NTBC | – | – |
| O=C1CCCC(=O)C1C(=O)c1ccc([N+](=O)[O-])cc1Cl [c6, 2-(2-chloro-4-nitrobenzoyl)1,3-cyclohexanedione] | 8000 nM | 0.000133 s⁻¹ | 119 ± 4.87 min | higher residence time value than NTBC | – | – |
| CC1(C)CC(=O)C=C(OC(=O)c2ccc(C(F)(F)F)cc2Cl)C1 [c7, 5,5-dimethyl-3-oxocyclohexenyl 2-chloro-4-(trifluoromethyl) benzoate] | – | – | – | – | 0.3749 ± 0.04297 h | – |
